In patent US12551475B2, “Methods and compositions for treating RNA viral infections” (Model Medicines, Inc., priority 2020, dated 2026):
Where a name gives a salt, the structure may show the parent alone. Read-outs that look alike come from different tables or passages of the source.

Columns and labels:
[1] = biological target: lysophosphatidic acyl transferase (LPAAT); details: cytokine-activated LPAAT; read-out: IC50 (generation of phosphatidic acid); cited from earlier work
[2] = Uninfected host cell cytotoxicity counter screen; type: cell-based, human; details: human, uninfected HeLa-ACE2 cells; uninfected HeLa-ACE2, 24 h
Procedure: Compounds were acoustically transferred into 1,536-well clear plates (Greiner Part. No. 789091). HeLa-ACE2 cells were maintained as described for the infection assay and seeded in the assay-ready plates at 400 cells/well in DMEM with 2% FBS and plates were incubated for 24 hours at 37 5% CO2. To assess cell viability, the Image-iT DEAD green reagent (Thermo Fisher) was used according to manufacturer instructions. Cells were fixed with 4% paraformaldehyde, and counterstained with DAPI. Fixed cells were imaged using the ImageXpress Micro Confocal High-Content Imaging System (Molecular Devices) with a 10× objective, and total live cells per well quantified in the acquired images using the Live Dead Application Module (MetaXpress).
Image analysis was carried out with MetaXpress (version 6.5.4.532). Primary in vitro screen and the host cell cytotoxicity counter screen data were uploaded to Genedata Screener, Version 16.0.3-Standard. Data were normalized to neutral (DMSO) […] inhibitor controls (2.5 μM remdesivir for antiviral effect and 10 μM puromycin for infected host cell toxicity). For the uninfected host cell cytotoxicity counter screen 40 μM puromycin (Sigma) was used as the positive control. For dose response experiments compounds were tested in technical triplicates on different assay plates and dose curves were fitted with the four parameter Hill Equation. Technical replicate data were analyzed using median condensing.

SARS-CoV-2 [3] = tested on: SARS-CoV-2
SARS-CoV-2 [4] = assay: microbe, parasite or virus in culture
S. pneumoniae = details: various strains; cited from earlier work
S. viridans = details: various strains; cited from earlier work
S. aureus = details: various strains; cited from earlier work
S. epidermidis = details: various strains; cited from earlier work
cancer cell lines = details: cited from earlier work
[5] = tested on: B-RAFV^600E-expressing A375P melanoma cells; details: cited from earlier work
[6] = tested on: wild-type B-RAF-expressing human foreskin fibroblasts; details: cited from earlier work
[7] = biological target: 3CL Protease (SARS-CoV-2) (Severe acute respiratory syndrome coronavirus 2, UniProt P0DTD1); assay: 3CL Protease (untagged, SARS-CoV-2) activity assay; type: biochemical
Text: The 3CL Protease Activity Assay described in this example is designed to measure 3CL Protease activity for screening and profiling applications, in a homogeneous assay with no time-consuming washing steps. The assay can be performed in a 96-well format, with purified untagged 3CL Protease, fluorogenic substrate, and 3CL Protease assay buffer for 100 enzyme reactions. 3CL inhibitor GC376 was included as a positive control. See https://bpsbioscience.com/3cl-protease-intagged-sars-cov-2-assay-kit-78042.
3CL Protease (SARS-CoV-2), no tag*; 3CL Protease Substrate (10 mM); 3CL Protease Assay Buffer; GC376, MW=507.5; 0.5 M DTT; Black, low binding microtiter plate; Plate sealing film. Fluorescent microplate reader capable of reading exc/em=360 nm/460 nm
All Samples and Controls were Tested in Duplicate.
• 1) Added 0.5 M DTT to 3CL Protease Assay Buffer so final DTT concentration was 1 mM. (e.g., added 10 μl of 0.5 M DTT to 5 ml assay buffer) (DTT was added just before use. Enough DTT-containing buffer as required for the assay was prepared. Remaining assay buffer was stored at −20° C.). • 2) Thaw 3CL Protease was thawed on ice. Upon first thaw, tube containing enzyme was briefly spun to recover the full content of the tube. Aliquoted 3CL Protease into single use aliquots. Stored remaining undiluted enzyme in aliquots at −80° C. • 3) Diluted 3CL Protease in Assay buffer (with 1 mM DTT) at 0.5 ng/μl (15 ng per reaction). • 4) Added 30 μl diluted 3CL Protease enzyme solution to wells designated as “Positive Control”, “Inhibitor Control” and “Test Sample”. Added 30 μl Assay buffer (with 1 mM DTT) to the “Blank” wells.
• 5) Diluted 50 μg GC376 in 200 μl water to obtain a 500 μM solution. Aliquoted and stored remaining solution in aliquots at −80° C. Added 10 μl GC376 (500 μM) to the wells labeled “Inhibitor Control”. • 6) Prepared the inhibitor solution.
(If the inhibitor compound was dissolved in DMSO, made a 100-fold higher concentration of the compound than the highest concentration tested in DMSO. Then made a 20-fold dilution in 1× assay buffer (at this step the compound concentration is 5-fold higher than the final concentration)).
If the inhibitor compound is dissolved in water, made a solution of the compound 5-fold higher than the final concentration in 3CL Protease assay buffer (with 1 mM DTT). For example, diluting 50 μg GC376 in 200 μl water (step 5) creates a 500 μM solution. Adding 10 μl to the assay (final volume 50 μl) results in a 100 μM final concentration.
7) Added 10 μl inhibitor to each well designated “Test Sample”. Added 10 μl 1× assay buffer or 5% DMSO in water (depending on which inhibitor solution is used) to “Blank” and “Positive Control” wells. • 8) Preincubated enzyme with the inhibitor for 30 min at room temperature with slow shaking. • 9) Diluted 10 mM 3CL Protease substrate 1:50 in assay buffer with DTT, to make a 200 μM solution. Diluted only enough as was required for the assay. • 10) Started reaction by adding 10 μl of the substrate solution to each well (Final concentration of the 3CL Protease substrate in a 50 μl reaction was 40 μM). • 11) Incubated for 4 hours at room temperature with slow shaking. Sealed the plate with the plate sealer. Measured the fluorescence intensity in a microtiter plate-reading fluorimeter capable of excitation at a wavelength 360 nm and detection of emission at a wavelength 460 nm. The fluorescence intensity can also be measured kinetically. “Blank” value was subtracted from all other values. Data Analysis
3CL Protease activity assays were performed in duplicates. The fluorescence data were analyzed using the computer software, Graphpad Prism. In the absence of the compound, the fluorescence (Ft) in each data set was defined as 100% activity. In the absence of the 3CL Protease, the fluorescence (Fb) in each data set was defined as 0% activity. […]

HeLa cells = details: read-out: IC50 (apoptosis); cited from earlier work
thymocytes = details: read-out: IC50 (apoptosis); cited from earlier work
MCF-7 cell line = details: read-out: IC50 (antitumor activity in vitro); cited from earlier work
Renal 1983 cell line = details: read-out: IC50 (antitumor activity in vitro); cited from earlier work
[8] = in vivo; cited from earlier work
SARS-CoV-2 [9] = details: ReFRAME screen, same methods (Bakowski et al, 2020); cited from earlier work
[10] = Severe acute respiratory syndrome coronavirus 2, HeLa-ACE2, 24 h

C[C@@H](O)CCCCn1c(=O)c2c(ncn2C)n(C)c1=O [(R)-LSF, 3,7-dihydro-1-[(5R)-5-hydroxyhexyl]-3,7-dimethyl-1H-purine-2,6-dione]
IC50 [1]: 0.6 µM

Cc1c2c(nn1C)CSCc1cc(n(C)n1)CSc1cc(c3ccccc3c1)OCCCc1c(C(=O)O)n(C)c3c-2c(Cl)ccc13 [AZD-5991]
CC50 at 24 h [2]: 0.527 µM
SI (selectivity index, CC50/EC50) (SARS-CoV-2 [3]): 0.06
activity in the HeLa-ACE2 cell-based SARS-CoV-2 assay (in words) (SARS-CoV-2 [3]): demonstrated activity
EC50 (SARS-CoV-2 [4]; [10]): 8.81 µM

CCC[C@@H]1C[C@@H](C(=O)N[C@@H]([C@H]2O[C@H](SC)[C@H](O)[C@@H](O)[C@H]2O)[C@H](C)Cl)N(C)C1 [Clindamycin, methyl 7-chloro-6,7,8-trideoxy-6-[[[(2S,4R)-1-methyl-4-propyl-2-pyrrolidinyl]carbonyl]amino]-1-thio-L-threo-α-D-galacto-octopyranoside]
MIC (S. pneumoniae): 0.002 to 0.1 µg/mL
MIC (S. viridans): 0.005 to 0.2 µg/mL
MIC (S. aureus): 0.04 to 1.6 µg/mL
MIC (S. epidermidis): 0.1 to 0.2 µg/mL

CC(C)(C)c1nc(-c2cccc(NS(=O)(=O)c3c(F)cccc3F)c2F)c(-c2ccnc(N)n2)s1 [Dabrafenib, N-[3-[5-(2-amino-4-pyrimidinyl)-2-(1,1-dimethylethyl)-4-thiazolyl]-2-fluorophenyl]-2,6-difluorobenzenesulfonamide]
GI50 (cancer cell lines; 16 cancer cell lines expressing mutant B-RAFV600E): < 0.2 µM
GI50 (cancer cell lines; 19 cell lines expressing wild-type Ras and RAF): < 7 µM
GI50 (cancer cell lines; five cell lines expressing other B-RAF mutants): < 0.03 µM
GI50 (cancer cell lines; four B-RAFV600E lines, 133 wild-type Ras and Raf lines, 18 mutant Ras lines not inhibited): > 10 µM
EC200 (caspase-3/7 activation) [5]: 71 nM
EC200 (caspase-3/7 activation) [6]: > 10,000 nM

COc1ccc2c3c1O[C@H]1C[C@@H](O)C=C[C@@]31CCN(C)C2 [Galantamine, (4aS,6R,8aS)-4a,5,9,10,11,12-hexahydro-3-methoxy-11-methyl-6H-benzofuro[3a,3,2-ef][2]benzazepin-6-ol]
3CL Protease Activity (Fluorescence count) Repeat1 ([7]; Galantamine 0.009 μM): 759
3CL Protease Activity (Fluorescence count) Repeat2 ([7]; Galantamine 0.009 μM): 768
3CL Protease Activity (Fluorescence count) Repeat1 ([7]; Galantamine 0.018 μM): 746
3CL Protease Activity (Fluorescence count) Repeat2 ([7]; Galantamine 0.018 μM): 752
3CL Protease Activity (Fluorescence count) Repeat1 ([7]; Galantamine 0.070 μM): 785
3CL Protease Activity (Fluorescence count) Repeat2 ([7]; Galantamine 0.070 μM): 783
3CL Protease Activity (Fluorescence count) Repeat1 ([7]; Galantamine 0.14 μM): 737
3CL Protease Activity (Fluorescence count) Repeat2 ([7]; Galantamine 0.14 μM): 760
3CL Protease Activity (Fluorescence count) Repeat1 ([7]; Galantamine 0.28 μM): 761
3CL Protease Activity (Fluorescence count) Repeat2 ([7]; Galantamine 0.28 μM): 797
3CL Protease Activity (Fluorescence count) Repeat1 ([7]; Galantamine 4.5 μM): 593
3CL Protease Activity (Fluorescence count) Repeat2 ([7]; Galantamine 4.5 μM): 543
activity at 0.009 µM ([7]; read-out: % Activity Repeat1): 98%
activity at 0.018 µM ([7]; read-out: % Activity Repeat1): 96%
activity at 0.07 µM ([7]; read-out: % Activity Repeat1): 102%
activity at 0.14 µM ([7]; read-out: % Activity Repeat1): 95%
activity at 0.28 µM ([7]; read-out: % Activity Repeat1): 98%
activity at 4.5 µM ([7]; read-out: % Activity Repeat1): 74%
activity at 0.009 µM ([7]; read-out: % Activity Repeat2): 99%
activity at 0.018 µM ([7]; read-out: % Activity Repeat2): 97%
activity at 0.07 µM ([7]; read-out: % Activity Repeat2): 102%
activity at 0.14 µM ([7]; read-out: % Activity Repeat2): 98%
activity at 0.28 µM ([7]; read-out: % Activity Repeat2): 104%
activity at 4.5 µM ([7]; read-out: % Activity Repeat2): 66%
effect on 3CL Protease activity (in words) ([7]; test range 0.009-4.5 μM): inhibited 3CL Protease activity

COc1ccc2c(c1OC)C(=O)O[C@@H]2[C@H]1c2c(cc3c(c2OC)OCO3)CCN1C [Noscapine, (3S)-6,7-dimethoxy-3-[(5R)-5,6,7,8-tetrahydro-4-methoxy-6-methyl-1,3-dioxolo[4,5-g]isoquinolin-5-yl]-1(3H)-isobenzofuranone, monohydrochloride]
IC50 (HeLa cells): 25 µM
IC50 (thymocytes): 10 µM
IC50 (MCF-7 cell line): 42.3 µM
IC50 (Renal 1983 cell line): 39.1 µM

CCC(CC)COC(=O)[C@H](C)N[P@](=O)(OC[C@H]1O[C@@](C#N)(c2ccc3c(N)ncnn23)[C@H](O)[C@@H]1O)Oc1ccccc1 [Remdesivir]
increase in EC50 from MOI=1 to MOI=26 (SARS-CoV-2 [3]): 2.7 fold
half-life (t 1/2) [8]: 1 h
EC50 (SARS-CoV-2 [4]; [10]): 0.13 µM

Nc1ncnc2c1nc(Cl)n2[C@@H]1O[C@@H]2COP(=O)(O)O[C@H]2[C@H]1O [Tocladesine, 8-chloroadenosine 3′,5′-monophosphate]
CC50 at 24 h [2]: > 39.8 µM
SI (selectivity index, CC50/EC50) (SARS-CoV-2 [3]): > 4.15
activity in the HeLa-ACE2 cell-based SARS-CoV-2 assay (in words) (SARS-CoV-2 [3]): active against COVID-19
activity in the HeLa-ACE2 cell-based SARS-CoV-2 assay (in words) (SARS-CoV-2 [3]; listed as tocladesine): demonstrated activity
EC50 (SARS-CoV-2 [4]; [10]): > 9.59 µM

Cc1cccc(/C=N/Nc2cc(N3CCOCC3)nc(OCCc3ccccn3)n2)c1 [apilimod]
increase in EC50 from MOI=1 to MOI=26 (SARS-CoV-2 [3]): 3.7 fold
Emax (SARS-CoV-2 [4]; Severe acute respiratory syndrome coronavirus 2, HeLa-ACE2, read-out: maximal efficacy (uninfected cells at the highest effective concentrations)): 85 to 90%

COc1ccc(C[C@H](N)C(=O)N[C@H]2[C@@H](O)[C@H](n3cnc4c(N(C)C)ncnc43)O[C@@H]2CO)cc1 [puromycin]
EC50 (SARS-CoV-2 [4]; Severe acute respiratory syndrome coronavirus 2, HeLa-ACE2, read-out: EC50 (total cell numbers per well, compound toxicity in the context of infection)): 0.547 ± 0.027 µM

O=C(c1ccc(OCCN2CCCCC2)cc1)c1c(-c2ccc(O)cc2)sc2cc(O)ccc12 [raloxifene]
EC50 (SARS-CoV-2 [9]): 4.13 µM
